Among the test systems are A549; ACHN; BT-549; COLO 205; HOP-62; IGROV-1; K562; KM12; M14; MOLT-4; Malme-3M; NCI-H460; NCI/ADR-RES; OVCAR-3; OVCAR-4; PC-3; SK-MEL-28; TK-10; UACC-62.
Common to all, as to assay: NCI anticancer screen, dose series, 48 h

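Step 1: Grow cells in 96-well plates. Step 2: Expose to compound for 48 hours at 5 concentrations. Step 3: Interpolate endpoints linearly; if unreached, use highest concentration. Here, GI50 denotes the concentration required for 50% inhibition of growth.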 Active and inactive are the calls of the source. Rule as the data show it: active = GI50 up to about 1.1 µM and inactive = higher.

In the case of `c1ccc2c(c1)Cn1c-2nc2ccccc21`, the GI50 is 67.6 µM (inactive) in the experiment with A549; 96.6 µM (inactive) in the experiment on ACHN; > 100 µM (inactive) in the experiment on BT-549; 98.4 µM (inactive) in the experiment with COLO 205; > 100 µM (inactive) in the experiment with HOP-62; > 100 µM (inactive) in the experiment with IGROV-1. Also, the GI50 is > 100 µM (inactive) with K562; > 100 µM (inactive) in the experiment on KM12; > 100 µM (inactive) with M14; 31.1 µM (inactive) in the experiment with MOLT-4; 76 µM (inactive) with Malme-3M; 97.3 µM (inactive) with NCI-H460. The GI50 with NCI/ADR-RES, in the experiment on OVCAR-3, in the experiment with OVCAR-4, in the experiment on PC-3, in the experiment with SK-MEL-28 and in the experiment with TK-10 was > 100 µM (inactive) in each case. For the same compound, in the experiment with UACC-62, the GI50 was > 100 µM (inactive).

For `N#CC1=C(N)OC(c2ccc([N+](=O)[O-])cc2)C1(C#N)C#N` (stereo unspecified), the GI50 is 24.4 µM (inactive) in the experiment with A549; 10.2 µM (inactive) in the experiment with ACHN; 17.1 µM (inactive) in the experiment with BT-549; 5.94 µM (inactive) in the experiment on COLO 205; 20.7 µM (inactive) with HOP-62; 15.6 µM (inactive) with IGROV-1. Besides, the GI50 was 37.8 µM (inactive) in the experiment on K562; > 33.7 µM (inactive) with KM12; 16.7 µM (inactive) in the experiment on M14; 33.7 µM (inactive) in the experiment on MOLT-4; 10.2 µM (inactive) in the experiment on Malme-3M; 19.6 µM (inactive) in the experiment on NCI/ADR-RES. For the same compound, the GI50 in the experiment on OVCAR-3 is > 10 µM (inactive); with OVCAR-4, 17.8 µM (inactive); in the experiment on PC-3, 17.1 µM (inactive); with SK-MEL-28, 9.4 µM (inactive); in the experiment with TK-10, 13.2 µM (inactive); with UACC-62 it was 8.71 µM (inactive).

`CCOC(=O)c1c(SCCN2CCCC2)n(-c2ccccc2)c(=S)n(-c2ccccc2)c1=O`: the GI50 was 4.02 µM (inactive) with A549; 1.72 µM (inactive) in the experiment with ACHN; 5.37 µM (inactive) in the experiment on BT-549; 1.84 µM (inactive) in the experiment on COLO 205; 18.5 µM (inactive) in the experiment with HOP-62; 2.03 µM (inactive) with IGROV-1. Moreover, the GI50 in the experiment on K562 was 2.12 µM (inactive); in the experiment on KM12 it was 15.8 µM (inactive); in the experiment with M14 it was 1.75 µM (inactive); in the experiment with MOLT-4 it was 1.65 µM (inactive); with Malme-3M it was 1.56 µM (inactive); in the experiment on NCI-H460, 5.81 µM (inactive). Further, the GI50 with NCI/ADR-RES is 25.8 µM (inactive); in the experiment on OVCAR-3, 1.78 µM (inactive); in the experiment on OVCAR-4, 13.1 µM (inactive); in the experiment with PC-3, 1.66 µM (inactive); in the experiment on SK-MEL-28 it was 2.75 µM (inactive); in the experiment on TK-10 it was 1.67 µM (inactive). The GI50 with UACC-62 was 2.79 µM (inactive).

For the compound `O=C(CCl)Nc1cc(Cl)c(Cl)cc1Cl`, the GI50 with A549 was 2.35 µM (inactive); in the experiment with ACHN it was 2.22 µM (inactive); with BT-549, 1.77 µM (inactive); with COLO 205 it was 1.85 µM (inactive); with HOP-62, 2.15 µM (inactive); in the experiment with IGROV-1, 1.81 µM (inactive). For the same compound, the GI50 in the experiment with K562 is 3.66 µM (inactive); in the experiment with KM12, 0.307 µM (active); in the experiment with M14, 1.48 µM (inactive); in the experiment on MOLT-4, > 10 µM (inactive); in the experiment with Malme-3M, 1.41 µM (inactive); with NCI-H460, 1.73 µM (inactive). For the same compound, the GI50 with NCI/ADR-RES was 2.05 µM (inactive); in the experiment with OVCAR-3, 1.76 µM (inactive); with OVCAR-4, 2.27 µM (inactive); in the experiment on PC-3, 1.76 µM (inactive); in the experiment with SK-MEL-28 it was 2.32 µM (inactive); with TK-10, 1.83 µM (inactive). In addition, in the experiment on UACC-62, the GI50 is 1.93 µM (inactive).

`C=C1C(=O)O[C@@H]2C[C@]3(C)CC[C@]4(C)[C@H](CC[C@@H]5[C@@]6(C)CCC(=O)C(C)(C)[C@@H]6CC[C@]54C)[C@H]3[C@H]12` [OCHRACEOLIDE A]: the GI50 with A549 is 22.2 µM (inactive); with ACHN it was 11.9 µM (inactive); in the experiment on BT-549 it was 16.1 µM (inactive); in the experiment with COLO 205, 7.19 µM (inactive); in the experiment on HOP-62, 23.5 µM (inactive); in the experiment on IGROV-1 it was 18.7 µM (inactive). For the same compound, the GI50 with K562 was 4.45 µM (inactive); in the experiment with KM12 it was 19.2 µM (inactive); in the experiment on M14 it was 14.6 µM (inactive); in the experiment with MOLT-4, 2.31 µM (inactive); in the experiment on Malme-3M, 15.8 µM (inactive); in the experiment on NCI-H460 it was 18.5 µM (inactive). The GI50 in the experiment on NCI/ADR-RES is 22.2 µM (inactive); in the experiment with OVCAR-3, 17.3 µM (inactive); in the experiment with OVCAR-4, 18.3 µM (inactive); with PC-3, 14.7 µM (inactive); with SK-MEL-28, 18.9 µM (inactive); in the experiment on TK-10, 16 µM (inactive). Moreover, the GI50 with UACC-62 is 16.9 µM (inactive).

Take `O=C(NCCCCCCNC(=O)c1cc(-c2ccccc2)nc2ccccc12)c1cc(-c2ccccc2)nc2ccccc12`: the GI50 is > 100 µM (inactive) in the experiment on A549; > 100 µM (inactive) in the experiment with ACHN; > 100 µM (inactive) in the experiment with BT-549; > 100 µM (inactive) in the experiment on COLO 205; 54.3 µM (inactive) with HOP-62; 34.8 µM (inactive) with IGROV-1. Moreover, the GI50 in the experiment on K562, in the experiment with M14, with MOLT-4, in the experiment on Malme-3M, in the experiment with NCI-H460 and with NCI/ADR-RES was > 100 µM (inactive) each time. Further, the GI50 in the experiment on OVCAR-3, with OVCAR-4, in the experiment on PC-3, in the experiment with SK-MEL-28, in the experiment on TK-10 and with UACC-62 was > 100 µM (inactive) in each case.

As to `CCCCCCCCCCCCCCCCCCNc1ccn(C2OC(COP(=O)(O)OCC3CCC(n4cnc5c(=O)[nH]cnc54)O3)C(O)C2O)c(=O)n1` (stereo unspecified), the GI50 in the experiment with A549 was > 100 µM (inactive); in the experiment with ACHN it was > 100 µM (inactive); in the experiment with BT-549 it was > 100 µM (inactive); with COLO 205, > 100 µM (inactive); with HOP-62, > 100 µM (inactive); with IGROV-1, 84.1 µM (inactive). The GI50 in the experiment on KM12, in the experiment with M14, in the experiment on MOLT-4, with Malme-3M, in the experiment with NCI-H460 and with NCI/ADR-RES was > 100 µM (inactive) each time. For the same compound, the GI50 is > 100 µM (inactive) with OVCAR-3; > 100 µM (inactive) in the experiment on OVCAR-4; 14.2 µM (inactive) in the experiment on PC-3; > 100 µM (inactive) in the experiment on SK-MEL-28; 19.5 µM (inactive) in the experiment on TK-10; > 100 µM (inactive) in the experiment on UACC-62.

Regarding `Cc1cc2nc3c(C#N)c(-c4ccccc4)cc(Nc4cccc(C(F)(F)F)c4)n3c2cc1C`, the GI50 with A549 was 3.18 µM (inactive); in the experiment with ACHN it was 3.4 µM (inactive); with BT-549, 10.5 µM (inactive); in the experiment on COLO 205, 4.17 µM (inactive); in the experiment on HOP-62, 9.98 µM (inactive); with K562, 0.392 µM (active). For the same compound, the GI50 was 4.07 µM (inactive) with KM12; 4.78 µM (inactive) with M14; 7.87 µM (inactive) with Malme-3M; 3.33 µM (inactive) in the experiment with NCI-H460; 4.07 µM (inactive) in the experiment with NCI/ADR-RES; 2.21 µM (inactive) with OVCAR-3. Further, the GI50 in the experiment with OVCAR-4 is 5.28 µM (inactive); in the experiment on PC-3, 2.56 µM (inactive); with SK-MEL-28, 9.02 µM (inactive); in the experiment with TK-10 it was 7.69 µM (inactive).

The values are drawn from ChEMBL document CHEMBL1201862, “PubChem BioAssay data set” (2004).
